Test results as given in patent publication US20080063668A1, “Nitroimidazole and terconazole composition and method” (priority 2006, published 2008).

Tests used:
Test in all cases: Inhibition of bacteria growth, drug dilution tubes, anaerobic
Format in all cases: cell-based
Parameters in all cases: key to growth: (+) for growth; (−) for no growth; (±) for suboptimal growth after an initial observation of growth
Atopobium vaginae BAA-55 = system: Atopobium vaginae BAA-55
Method: (§1) Serial dilutions of tinidazole and terconazole were prepared by adding measured amounts of each substance to water (both individually and in combination). Seven bacterial organisms that are common pathogens in bacterial vaginosis were grown anaerobically in the medium as listed in Table 4 under a N2/H2/CO2 (85:5:10) head space atmosphere. [table] These cultures were diluted to a 0.5 McFarland standard prior to inoculation of drug dilution tubes. One (1) mL of the 0.5 McFarland preparation was inoculated to an anaerobically prepared test tube containing 0.8 mL of Difco anaerobic medium (DAMM) and 0.2 mL of appropriate diluted antimicrobial or antimicrobial combination for a total of 2 mL. The inoculated tubes were then incubated at 37° C. and monitored daily for growth. Growth was scored with a (+) for growth, (−) for no growth, and (±) for suboptimal growth after an initial observation of growth. Tinidazole is abbreviated as TNZ and terconazole is abbreviated as TER in Tables 5 through 11.

[1] = system: Gardnerella vaginalis ATCC 14019
Method: as §1

[2] = system: Mobiluncus mulieris ATCC 35243
Method: as §1

## CCS(=O)(=O)CCn1c([N+](=O)[O-])cnc1C [TNZ, 1-[2-(ethylsulfonyl)ethyl]-2-methyl-5-nitroimidazole]
Atopobium vaginae BAA-55; TNZ 2 μg/ml, DAY 1
  growth: (+)
Atopobium vaginae BAA-55; TNZ 2 μg/ml, DAY 2
  growth: (+)
Atopobium vaginae BAA-55; TNZ 2 μg/ml, DAY 3
  growth: (+)
Atopobium vaginae BAA-55; TNZ 2 μg/ml, DAY 4
  growth: (+)
Atopobium vaginae BAA-55; TNZ 2 μg/ml, DAY 5
  growth: (+)
Atopobium vaginae BAA-55; TNZ 3.9 μg/ml, DAY 1
  growth: (+)
Atopobium vaginae BAA-55; TNZ 3.9 μg/ml, DAY 2
  growth: (+)
Atopobium vaginae BAA-55; TNZ 3.9 μg/ml, DAY 3
  growth: (+)
Atopobium vaginae BAA-55; TNZ 3.9 μg/ml, DAY 4
  growth: (+)
Atopobium vaginae BAA-55; TNZ 3.9 μg/ml, DAY 5
  growth: (+)
Atopobium vaginae BAA-55; TNZ 7.8 μg/ml, DAY 1
  growth: (+)
Atopobium vaginae BAA-55; TNZ 7.8 μg/ml, DAY 2
  growth: (+)
Atopobium vaginae BAA-55; TNZ 7.8 μg/ml, DAY 3
  growth: (+)
Atopobium vaginae BAA-55; TNZ 7.8 μg/ml, DAY 4
  growth: (+)
Atopobium vaginae BAA-55; TNZ 7.8 μg/ml, DAY 5
  growth: (+)
Atopobium vaginae BAA-55; TNZ 15.6 μg/ml, DAY 1
  growth: (−)
Atopobium vaginae BAA-55; TNZ 15.6 μg/ml, DAY 2
  growth: (+)
Atopobium vaginae BAA-55; TNZ 15.6 μg/ml, DAY 3
  growth: (+)
Atopobium vaginae BAA-55; TNZ 15.6 μg/ml, DAY 4
  growth: (+)
Atopobium vaginae BAA-55; TNZ 15.6 μg/ml, DAY 5
  growth: (+)
Atopobium vaginae BAA-55; TNZ 31.3 μg/ml, DAY 1
  growth: (−)
Atopobium vaginae BAA-55; TNZ 31.3 μg/ml, DAY 2
  growth: (+)
Atopobium vaginae BAA-55; TNZ 31.3 μg/ml, DAY 3
  growth: (+)
Atopobium vaginae BAA-55; TNZ 31.3 μg/ml, DAY 4
  growth: (+)
Atopobium vaginae BAA-55; TNZ 31.3 μg/ml, DAY 5
  growth: (+)
Atopobium vaginae BAA-55; TNZ 62.5 μg/ml, DAY 1
  growth: (−)
Atopobium vaginae BAA-55; TNZ 62.5 μg/ml, DAY 2
  growth: (+)
Atopobium vaginae BAA-55; TNZ 62.5 μg/ml, DAY 3
  growth: (+)
Atopobium vaginae BAA-55; TNZ 62.5 μg/ml, DAY 4
  growth: (+)
Atopobium vaginae BAA-55; TNZ 62.5 μg/ml, DAY 5
  growth: (+)
Atopobium vaginae BAA-55; TNZ 125 μg/ml, DAY 1
  growth: (−)
Atopobium vaginae BAA-55; TNZ 125 μg/ml, DAY 2
  growth: (+)
Atopobium vaginae BAA-55; TNZ 125 μg/ml, DAY 3
  growth: (+)
Atopobium vaginae BAA-55; TNZ 125 μg/ml, DAY 4
  growth: (+)
Atopobium vaginae BAA-55; TNZ 125 μg/ml, DAY 5
  growth: (+)
Atopobium vaginae BAA-55; TNZ 250 μg/ml, DAY 1
  growth: (−)
Atopobium vaginae BAA-55; TNZ 250 μg/ml, DAY 2
  growth: (+)
Atopobium vaginae BAA-55; TNZ 250 μg/ml, DAY 3
  growth: (+)
Atopobium vaginae BAA-55; TNZ 250 μg/ml, DAY 4
  growth: (+)
Atopobium vaginae BAA-55; TNZ 250 μg/ml, DAY 5
  growth: (+)
Atopobium vaginae BAA-55; TNZ 500 μg/ml, DAY 1
  growth: (−)
Atopobium vaginae BAA-55; TNZ 500 μg/ml, DAY 2
  growth: (−)
Atopobium vaginae BAA-55; TNZ 500 μg/ml, DAY 3
  growth: (+)
Atopobium vaginae BAA-55; TNZ 500 μg/ml, DAY 4
  growth: (+)
Atopobium vaginae BAA-55; TNZ 500 μg/ml, DAY 5
  growth: (+)
[1]; TNZ 2 μg/ml, DAY 1
  growth: (+)
[1]; TNZ 2 μg/ml, DAY 2
  growth: (+)
[1]; TNZ 2 μg/ml, DAY 3
  growth: (+)
[1]; TNZ 2 μg/ml, DAY 4
  growth: (+)
[1]; TNZ 2 μg/ml, DAY 5
  growth: (+)
[1]; TNZ 3.9 μg/ml, DAY 1
  growth: (+)
[1]; TNZ 3.9 μg/ml, DAY 2
  growth: (+)
[1]; TNZ 3.9 μg/ml, DAY 3
  growth: (+)
[1]; TNZ 3.9 μg/ml, DAY 4
  growth: (+)
[1]; TNZ 3.9 μg/ml, DAY 5
  growth: (+)
[1]; TNZ 7.8 μg/ml, DAY 1
  growth: (+)
[1]; TNZ 7.8 μg/ml, DAY 2
  growth: (+)
[1]; TNZ 7.8 μg/ml, DAY 3
  growth: (+)
[1]; TNZ 7.8 μg/ml, DAY 4
  growth: (+)
[1]; TNZ 7.8 μg/ml, DAY 5
  growth: (+)
[1]; TNZ 15.6 μg/ml, DAY 1
  growth: (+)
[1]; TNZ 15.6 μg/ml, DAY 2
  growth: (+)
[1]; TNZ 15.6 μg/ml, DAY 3
  growth: (+)
[1]; TNZ 15.6 μg/ml, DAY 4
  growth: (+)
[1]; TNZ 15.6 μg/ml, DAY 5
  growth: (+)
[1]; TNZ 31.3 μg/ml, DAY 1
  growth: (+)
[1]; TNZ 31.3 μg/ml, DAY 2
  growth: (+)
[1]; TNZ 31.3 μg/ml, DAY 3
  growth: (+)
[1]; TNZ 31.3 μg/ml, DAY 4
  growth: (+)
[1]; TNZ 31.3 μg/ml, DAY 5
  growth: (+)
[1]; TNZ 62.5 μg/ml, DAY 1
  growth: (+)
[1]; TNZ 62.5 μg/ml, DAY 2
  growth: (+)
[1]; TNZ 62.5 μg/ml, DAY 3
  growth: (+)
[1]; TNZ 62.5 μg/ml, DAY 4
  growth: (+)
[1]; TNZ 62.5 μg/ml, DAY 5
  growth: (+)
[1]; TNZ 125 μg/ml, DAY 1
  growth: (+)
[1]; TNZ 125 μg/ml, DAY 2
  growth: (+)
[1]; TNZ 125 μg/ml, DAY 3
  growth: (+)
[1]; TNZ 125 μg/ml, DAY 4
  growth: (+)
[1]; TNZ 125 μg/ml, DAY 5
  growth: (+)
[1]; TNZ 250 μg/ml, DAY 1
  growth: (+)
[1]; TNZ 250 μg/ml, DAY 2
  growth: (+)
[1]; TNZ 250 μg/ml, DAY 3
  growth: (+)
[1]; TNZ 250 μg/ml, DAY 4
  growth: (+)
[1]; TNZ 250 μg/ml, DAY 5
  growth: (+)
[1]; TNZ 500 μg/ml, DAY 1
  growth: (+)
[1]; TNZ 500 μg/ml, DAY 2
  growth: (+)
[1]; TNZ 500 μg/ml, DAY 3
  growth: (+)
[1]; TNZ 500 μg/ml, DAY 4
  growth: (+)
[1]; TNZ 500 μg/ml, DAY 5
  growth: (+)
[2]; TNZ 2 μg/ml, DAY 1
  growth: (+)
[2]; TNZ 2 μg/ml, DAY 2
  growth: (+)
[2]; TNZ 2 μg/ml, DAY 3
  growth: (+)
[2]; TNZ 2 μg/ml, DAY 4
  growth: (+)
[2]; TNZ 2 μg/ml, DAY 5
  growth: (+)
[2]; TNZ 3.9 μg/ml, DAY 1
  growth: (+)
[2]; TNZ 3.9 μg/ml, DAY 2
  growth: (+)
[2]; TNZ 3.9 μg/ml, DAY 3
  growth: (+)
[2]; TNZ 3.9 μg/ml, DAY 4
  growth: (+)
[2]; TNZ 3.9 μg/ml, DAY 5
  growth: (+)
[2]; TNZ 7.8 μg/ml, DAY 1
  growth: (+)
[2]; TNZ 7.8 μg/ml, DAY 2
  growth: (+)
[2]; TNZ 7.8 μg/ml, DAY 3
  growth: (+)
[2]; TNZ 7.8 μg/ml, DAY 4
  growth: (+)
[2]; TNZ 7.8 μg/ml, DAY 5
  growth: (+)
[2]; TNZ 15.6 μg/ml, DAY 1
  growth: (−)
[2]; TNZ 15.6 μg/ml, DAY 2
  growth: (−)
[2]; TNZ 15.6 μg/ml, DAY 3
  growth: (−)
[2]; TNZ 15.6 μg/ml, DAY 4
  growth: (+)
[2]; TNZ 15.6 μg/ml, DAY 5
  growth: (+)
[2]; TNZ 31.3 μg/ml, DAY 1
  growth: (−)
[2]; TNZ 31.3 μg/ml, DAY 2
  growth: (−)
[2]; TNZ 31.3 μg/ml, DAY 3
  growth: (−)
[2]; TNZ 31.3 μg/ml, DAY 4
  growth: (+)
[2]; TNZ 31.3 μg/ml, DAY 5
  growth: (+)
[2]; TNZ 62.5 μg/ml, DAY 1
  growth: (−)
[2]; TNZ 62.5 μg/ml, DAY 2
  growth: (−)
[2]; TNZ 62.5 μg/ml, DAY 3
  growth: (−)
[2]; TNZ 62.5 μg/ml, DAY 4
  growth: (−)
[2]; TNZ 62.5 μg/ml, DAY 5
  growth: (−)
[2]; TNZ 125 μg/ml, DAY 1
  growth: (−)
[2]; TNZ 125 μg/ml, DAY 2
  growth: (−)
[2]; TNZ 125 μg/ml, DAY 3
  growth: (−)
[2]; TNZ 125 μg/ml, DAY 4
  growth: (−)
[2]; TNZ 125 μg/ml, DAY 5
  growth: (−)
[2]; TNZ 250 μg/ml, DAY 1
  growth: (−)
[2]; TNZ 250 μg/ml, DAY 2
  growth: (−)
[2]; TNZ 250 μg/ml, DAY 3
  growth: (−)
[2]; TNZ 250 μg/ml, DAY 4
  growth: (−)
[2]; TNZ 250 μg/ml, DAY 5
  growth: (−)
[2]; TNZ 500 μg/ml, DAY 1
  growth: (−)
[2]; TNZ 500 μg/ml, DAY 2
  growth: (−)
[2]; TNZ 500 μg/ml, DAY 3
  growth: (−)
[2]; TNZ 500 μg/ml, DAY 4
  growth: (−)
[2]; TNZ 500 μg/ml, DAY 5
  growth: (−)
